In ChEMBL document CHEMBL2021812, “Aryltriflates as a Neglected Moiety in Medicinal Chemistry: A Case Study from a Lead Optimization of CXCL8 Inhibitors” (ACS Med Chem Lett, 2011):
Calls of active or inactive are those of the source. No cut-off for these calls is given here.

Experiments:
[1] = biological target: Interleukin-8 receptors, CXCR1/CXCR2 (Homo sapiens) (UniProt P25025+P25024); assay: Inhibition of CXCR1/2 in human polymorphonucleate cells assessed as inhibition of CXCL8-induced chemotaxis at 10^-8 M incubated for 15 mins prior to CXCL8-induction measured after 45 mins
[2] = biological target: T1, C-X-C chemokine receptor type 2 (Homo sapiens) (UniProt P25025); assay: Inhibition of CXCR2 in human polymorphonucleate cells assessed as inhibition of CXCL1-induced chemotaxis at 10^-8 M incubated for 15 mins prior to CXCL1-induction measured after 45 mins
T1 sequence (whole entry): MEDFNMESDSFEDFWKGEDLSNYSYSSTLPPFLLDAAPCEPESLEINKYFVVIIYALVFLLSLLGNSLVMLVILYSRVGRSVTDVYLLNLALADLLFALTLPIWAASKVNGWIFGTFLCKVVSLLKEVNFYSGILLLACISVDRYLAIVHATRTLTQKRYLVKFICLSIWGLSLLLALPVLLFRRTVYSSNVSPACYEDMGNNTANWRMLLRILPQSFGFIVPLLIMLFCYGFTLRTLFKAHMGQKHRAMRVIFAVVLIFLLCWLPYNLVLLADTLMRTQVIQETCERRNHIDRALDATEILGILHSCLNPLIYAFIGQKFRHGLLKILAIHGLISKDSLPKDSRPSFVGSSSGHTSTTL

[3] = Elimination half life in Sprague-Dawley rat at 14 mg/kg, iv; format: ADME, organism-based; parameters: dose 14 mg/kg, route intravenous; details: in vivo, read-out: beta t1/2 (converted)
[4] = Chemical stability of the compound assessed as compound remaining at pH 7.4 after 2 hrs; format: physicochemical; details: buffer, read-out: Stability
[5] = Half life in iv dosed rat plasma; format: ADME, organism-based
[6] = Metabolic stability in rat plasma assessed as compound remaining at 1 uM after 1 hr; format: ADME, cell-free; details: read-out: Stability
[7] = Metabolic stability in rat liver microsomes assessed as compound remaining at 1 uM preincubated for 10 mins measured after 30 mins; format: ADME, Microsome; details: read-out: Stability
CYP1A2 = biological target: T2, CYP1A2 (Homo sapiens, UniProt P05177); assay: Inhibition of CYP1A2 using CEC as substrate at 10 uM; format: ADME; details: probe CEC
T2 sequence (P05177 whole entry): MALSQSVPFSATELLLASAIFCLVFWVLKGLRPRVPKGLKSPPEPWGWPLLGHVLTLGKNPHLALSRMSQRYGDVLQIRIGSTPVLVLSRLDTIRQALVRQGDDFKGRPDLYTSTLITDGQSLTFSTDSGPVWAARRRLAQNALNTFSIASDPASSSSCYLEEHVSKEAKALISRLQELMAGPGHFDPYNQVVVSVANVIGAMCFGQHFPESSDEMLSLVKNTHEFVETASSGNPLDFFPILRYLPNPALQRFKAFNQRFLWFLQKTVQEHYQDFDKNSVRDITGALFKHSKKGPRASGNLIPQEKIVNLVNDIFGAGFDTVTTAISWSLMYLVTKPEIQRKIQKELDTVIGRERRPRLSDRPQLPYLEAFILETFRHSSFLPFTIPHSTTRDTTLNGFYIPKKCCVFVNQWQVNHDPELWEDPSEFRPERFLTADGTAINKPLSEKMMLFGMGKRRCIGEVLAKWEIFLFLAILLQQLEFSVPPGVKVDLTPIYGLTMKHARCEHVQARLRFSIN

CYP2D6 = CYP2D6 (Homo sapiens, UniProt P10635); assay: Inhibition of CYP2D6 using AMMC as substrate at 10 uM; format: ADME; details: probe AMMC
CYP2C9 = CYP2C9 (Homo sapiens, UniProt P11712); assay: Inhibition of CYP2C9 using 7MFC as substrate at 10 uM; format: ADME; details: probe 7MFC
CYP3A4 = CYP3A4 (Homo sapiens, UniProt P08684); assay: Inhibition of CYP3A4 using BFC as substrate at 10 uM; format: ADME; details: probe BFC
CYP2C19 = CYP2C19 (Homo sapiens, UniProt P33261); assay: Inhibition of CYP2C19 using DBF as substrate at 10 uM; format: ADME; details: probe DBF
Sequence of CYP2C19 (P33261 whole entry): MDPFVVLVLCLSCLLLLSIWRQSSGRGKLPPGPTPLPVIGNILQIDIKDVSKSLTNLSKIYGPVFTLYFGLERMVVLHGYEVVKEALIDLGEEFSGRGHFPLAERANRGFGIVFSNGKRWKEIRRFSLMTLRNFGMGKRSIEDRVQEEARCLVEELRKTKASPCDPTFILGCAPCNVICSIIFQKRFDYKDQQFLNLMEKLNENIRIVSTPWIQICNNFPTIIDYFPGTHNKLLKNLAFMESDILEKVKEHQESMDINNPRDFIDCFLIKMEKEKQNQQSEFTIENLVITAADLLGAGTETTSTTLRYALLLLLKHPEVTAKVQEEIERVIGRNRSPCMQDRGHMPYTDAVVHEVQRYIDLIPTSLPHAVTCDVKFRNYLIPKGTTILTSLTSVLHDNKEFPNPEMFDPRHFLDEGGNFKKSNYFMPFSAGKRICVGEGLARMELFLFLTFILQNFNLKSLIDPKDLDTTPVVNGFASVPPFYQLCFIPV

Sequence of CYP3A4 (P08684 whole entry): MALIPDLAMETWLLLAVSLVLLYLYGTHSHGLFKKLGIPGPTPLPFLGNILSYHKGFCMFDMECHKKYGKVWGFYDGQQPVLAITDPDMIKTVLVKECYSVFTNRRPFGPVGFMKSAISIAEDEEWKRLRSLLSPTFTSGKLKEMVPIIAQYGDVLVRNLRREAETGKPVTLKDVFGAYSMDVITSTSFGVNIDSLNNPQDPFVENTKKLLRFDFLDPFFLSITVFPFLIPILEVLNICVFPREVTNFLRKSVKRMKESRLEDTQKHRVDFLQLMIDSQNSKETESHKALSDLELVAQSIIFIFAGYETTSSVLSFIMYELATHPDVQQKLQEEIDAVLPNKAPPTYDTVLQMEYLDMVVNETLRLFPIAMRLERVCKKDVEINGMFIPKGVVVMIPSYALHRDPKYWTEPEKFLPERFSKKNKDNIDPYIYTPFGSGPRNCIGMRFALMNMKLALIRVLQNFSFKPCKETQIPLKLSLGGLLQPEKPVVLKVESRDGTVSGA
Sequence of CYP2C9 (P11712 whole entry): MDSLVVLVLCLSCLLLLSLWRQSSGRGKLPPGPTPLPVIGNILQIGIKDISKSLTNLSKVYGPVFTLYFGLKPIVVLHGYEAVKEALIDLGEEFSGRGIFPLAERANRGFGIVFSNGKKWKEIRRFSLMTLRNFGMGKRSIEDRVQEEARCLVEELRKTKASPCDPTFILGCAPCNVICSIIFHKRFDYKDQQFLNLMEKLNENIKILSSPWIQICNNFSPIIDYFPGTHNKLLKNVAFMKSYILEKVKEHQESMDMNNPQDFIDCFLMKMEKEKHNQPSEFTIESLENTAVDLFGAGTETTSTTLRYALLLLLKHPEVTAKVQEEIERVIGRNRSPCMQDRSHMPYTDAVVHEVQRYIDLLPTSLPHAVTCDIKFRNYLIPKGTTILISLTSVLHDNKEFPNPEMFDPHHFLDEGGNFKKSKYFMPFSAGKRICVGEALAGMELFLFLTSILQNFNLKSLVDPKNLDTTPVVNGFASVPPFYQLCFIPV
Sequence of CYP2D6 (P10635 whole entry): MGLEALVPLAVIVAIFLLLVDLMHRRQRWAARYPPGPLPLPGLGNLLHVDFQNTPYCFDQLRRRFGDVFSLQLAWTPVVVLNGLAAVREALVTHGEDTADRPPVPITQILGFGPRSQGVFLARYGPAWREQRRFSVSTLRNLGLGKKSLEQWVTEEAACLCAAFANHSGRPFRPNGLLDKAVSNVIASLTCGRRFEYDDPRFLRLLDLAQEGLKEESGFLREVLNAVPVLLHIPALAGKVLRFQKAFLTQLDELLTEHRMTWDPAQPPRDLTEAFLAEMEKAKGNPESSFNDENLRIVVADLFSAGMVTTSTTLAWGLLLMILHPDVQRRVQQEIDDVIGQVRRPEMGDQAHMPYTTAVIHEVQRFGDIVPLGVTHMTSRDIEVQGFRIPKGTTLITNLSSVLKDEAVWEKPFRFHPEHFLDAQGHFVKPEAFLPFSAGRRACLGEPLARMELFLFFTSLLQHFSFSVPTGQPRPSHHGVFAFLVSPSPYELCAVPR
Sequence of Interleukin-8 receptors, CXCR1/CXCR2 (Homo sapiens) (P25024 whole entry, looked up, one chain of several): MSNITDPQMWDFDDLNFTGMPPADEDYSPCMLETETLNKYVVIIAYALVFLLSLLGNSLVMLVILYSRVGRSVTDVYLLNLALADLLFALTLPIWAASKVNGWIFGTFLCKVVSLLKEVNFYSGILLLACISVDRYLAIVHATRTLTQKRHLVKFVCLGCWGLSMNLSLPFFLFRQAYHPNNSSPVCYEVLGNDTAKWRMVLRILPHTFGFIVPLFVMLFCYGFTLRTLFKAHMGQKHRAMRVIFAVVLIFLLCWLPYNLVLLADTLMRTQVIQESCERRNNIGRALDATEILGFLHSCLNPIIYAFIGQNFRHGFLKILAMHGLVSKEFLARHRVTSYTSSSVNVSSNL

Row | SMILES | inhibition [1] | inhibition [2] | remaining at 0.5 h, 1 µM [7] | other results
1 | CC(C)Cc1ccc([C@@H](C)C(=O)NS(C)(=O)=O)cc1 [REPARIXIN] | 68% | 22% | – | half-life [3]: 45 min
2 | C[C@@H](C(=O)N(C)O)c1ccc(OS(=O)(=O)C(F)(F)F)cc1 | 47% | 49% | 75% | remaining at 2 h [4]: > 98%; half-life [5]: < 60 min; remaining at 1 h, 1 µM [6]: 96%
3 | C[C@@H](C(=O)NS(=O)(=O)C1CC1)c1ccc(OS(=O)(=O)C(F)(F)F)cc1 | 44% | 45% | – | –
4 | C[C@H](C(=O)NS(C)(=O)=O)c1ccc(OS(=O)(=O)C(F)(F)F)cc1 | inactive | inactive | – | –
5 | CC(C)ONC(=O)[C@H](C)c1ccc(OS(=O)(=O)C(F)(F)F)cc1 | 49% | 38% | 75% | remaining at 1 h, 1 µM [6]: 85%
6 | C[C@@H](C(=O)NOCC1CC1)c1ccc(OS(=O)(=O)C(F)(F)F)cc1 | 40% | 35% | – | –

Further lines, with some results ahead:

Row | inhibition [1] | inhibition [2] | remaining at 0.5 h, 1 µM [7] | SMILES | other results
7 | 44% | 48% | – | C[C@@H](C(=O)Nc1nnco1)c1ccc(OS(=O)(=O)C(F)(F)F)cc1 | –
8 | 58% | 65% | 75% | CC(C)NC(=O)[C@H](C)c1ccc(OS(=O)(=O)C(F)(F)F)cc1 | –
9 | 56% | 46% | 65% | CONC(=O)[C@H](C)c1ccc(OS(=O)(=O)C(F)(F)F)cc1 | remaining at 2 h [4]: > 98%; half-life [5]: < 60 min; remaining at 1 h, 1 µM [6]: 90%
10 | 54% | 55% | – | C[C@@H](C(=O)Nc1nncs1)c1ccc(OS(=O)(=O)C(F)(F)F)cc1 | inhibition at 10 µM (CYP1A2): < 5%; inhibition at 10 µM (CYP2D6): 40%; inhibition at 10 µM (CYP2C9): 50%; inhibition at 10 µM (CYP3A4): 66%; inhibition at 10 µM (CYP2C19): 70%
11 | 44% | 45% | – | C[C@@H](C(=O)Nc1nnc[nH]1)c1ccc(OS(=O)(=O)C(F)(F)F)cc1 | inhibition at 10 µM (CYP1A2): < 5%; inhibition at 10 µM (CYP2D6): < 5%; inhibition at 10 µM (CYP2C9): < 5%; inhibition at 10 µM (CYP3A4): 8%; inhibition at 10 µM (CYP2C19): 21%
